The results in this text go back to US9951052B2, “Inhibitors of the renal outer medullary potassium channel” (Merck Sharp & Dohme Corp., priority 2013, dated 2018).

For the assay, the target named is T1, hROMK (hKir1.1) (Homo sapiens, UniProt P48048).
T1 construct: expressed in transfected cells
T1 sequence (P48048 1-391): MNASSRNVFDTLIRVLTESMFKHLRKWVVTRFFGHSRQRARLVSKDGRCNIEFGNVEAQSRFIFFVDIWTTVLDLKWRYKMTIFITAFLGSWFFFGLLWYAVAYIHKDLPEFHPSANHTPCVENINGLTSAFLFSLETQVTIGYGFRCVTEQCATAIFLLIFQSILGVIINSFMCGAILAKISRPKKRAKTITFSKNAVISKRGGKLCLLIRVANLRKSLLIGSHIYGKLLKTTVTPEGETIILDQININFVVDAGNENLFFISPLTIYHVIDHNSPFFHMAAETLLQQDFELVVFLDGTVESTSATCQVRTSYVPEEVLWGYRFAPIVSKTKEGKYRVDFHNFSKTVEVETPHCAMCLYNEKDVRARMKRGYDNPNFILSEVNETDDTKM
Briefly: Thallium Flux Assay (ROMK channel functional thallium flux, FLIPR-Tetra). The format is cell-based. To be noted: HEK293 cells stably expressing hROMK (hKir1.1); 30 min incubation with compound; HCl salt run where final product was an HCl salt. Summed up:
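HEK293 cells stably expressing hROMK were FluxOR dye-loaded 90 min, then given compound 30 min at room temperature in probenecid assay buffer with 0.3 mM ouabain. Final 3 mM Tl+/0.3 mM K+ stimulus; fluorescence ([…]) recorded ~10 min. Normalized to 3 μM reference inhibitor for IC50.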

Molecules are shown by their SMILES. pIC50: −log10 of the molar value.

On to `Cc1c(CCN2CCC(C(=O)Nc3ccc(C#N)c4ccccc34)CC2)ccc2c1COC2=O` [Example 6, N-(4-cyanonaphthalen-1-yl)-1-(2-(4-methyl-1-oxo-1,3-dihydroisobenzofuran-5-yl)ethyl)piperidine-4-carboxamide], for which the pIC50 was 7.15.
